Results on 4 compounds are retold here after the supplement of paper PMC4862054.

Common to all, as to settings: incubation time: 72 h
The subject of one assay is BT-474. Put plainly: normalised response (% of control), CellTox Green; higher = less cell death (100 = DMSO, 0 = benzethonium chloride kill control). The procedure, abridged: (§1)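 Plates were normalised with 0.1 % DMSO as 100 and a positive kill control as 0. Breast cancer cell lines in 20 µl suspension had been seeded into 384-well plates with compound at 5 concentrations in 10-fold steps over a compound-specific 10,000-fold range, incubated 72 h, and read for CellTox Green fluorescence (485/520 nm) followed by CellTiter-Glo luminescence. Each value is the normalised signal at a single concentration.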

Assay [1] has as its system CAL-120. The assay is described as above. The essentials: as §1
Assay [2] concerns CAL-148. The assay is described as above. The procedure, abridged: as §1
Assay [3] concerns CAL-51. Described as above. The essentials: as §1
The test system of assay [4] is CAL-85-1. Described as above. The procedure, abridged:
as §1

In assay [5] the test system is HDQ-P1. Described as above. The essentials: as §1
The subject of assay [6] is Hs578T. Described as above. The essentials: as §1
A further assay has as its system MCF-10A. Described as above. The procedure, abridged: as §1
The subject of assay [7] is MDA-MB-231. The assay is described as above. The procedure, abridged:
as §1

Assay [8] concerns MDA-MB-436. The assay is described as above. The procedure, abridged:
as §1

Assay [9] has as its system MDA-MB-453. Described as above. The procedure, abridged: as §1
Assay [10] relates to MDA-MB-468. Described as above. The procedure, abridged:
as §1

Assay [11] has as its system MFM-223. The description is as above. The essentials: as §1
Assay [12] has as its system CAL-120. Description: drug sensitivity score (DSS), CellTiter-Glo (DSS (AUC-based score)); higher = stronger drug effect (viability inhibition or cytotoxicity); extreme values may be limits of the assay. The procedure, abridged: (§2)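 Compound was dispensed into 384-well plates at 5 concentrations in 10-fold steps spanning a 10,000-fold range chosen for each compound, and 20 µl of breast cancer cell suspension was added before 72 h of incubation. CellTox Green fluorescence was read at 485/520 nm, followed by CellTiter-Glo luminescence after 10 min at room temperature. Values on each plate were normalised to 0.1 % DMSO and a positive kill control. The drug sensitivity score came from the area under the fitted dose-response curve.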

For assay [13], the system named is CAL-148. The description is as above. The essentials: as §2
Assay [14] relates to CAL-51. Described as above. The procedure, abridged: as §2
In assay [15] the test system is CAL-85-1. Described as above. The procedure, abridged: as §2
The next assay relates to DU-4475. Described as above. The procedure, abridged: as §2
In assay [16] the test system is HCC1143. The assay is described as above. The procedure, abridged:
as §2

Another assay has as its system HCC1937. The assay is described as above. The procedure, abridged: as §2
The test system of assay [17] is HDQ-P1. Described as above. The essentials:
as §2

The test system of assay [18] is Hs578T. The assay is described as above. The procedure, abridged:
as §2

Assay [19] concerns MDA-MB-231. The assay is described as above. The essentials:
as §2

In assay [20] the test system is MDA-MB-436. The description is as above. The procedure, abridged: as §2
Assay [21] has as its system MDA-MB-453. The assay is described as above. The essentials: as §2
For assay [22], the system named is MDA-MB-468. The assay is described as above. The essentials: as §2
Assay [23] has as its system MFM-223. The assay is described as above. The essentials: as §2
In assay [24] the test system is HCC1143. Description: normalised response (% of control), CellTox Green; higher = less cell death (100 = DMSO, 0 = benzethonium chloride kill control). The essentials:
as §1

As to `CN(N=O)C(=O)N[C@@H](C=O)[C@@H](O)[C@H](O)[C@H](O)CO` [Streptozocin] (10000 nM), the normalised response in the assay on BT-474 was found to be 105%; in the assay with CAL-120 [1], 110%; with CAL-148 [2], 107%; with CAL-51 [3] it was 102%; in the assay with CAL-85-1 [4] it was 80.7%; with HDQ-P1 [5] it was 110%. Further, the normalised response with Hs578T [6] came to 136%; with MCF-10A, 116%; with MDA-MB-231 [7], 106%; in the assay on MDA-MB-436 [8] it was 68.7%; in the assay with MDA-MB-453 [9], 84.9%; with MDA-MB-468 [10], 64.1%. In the assay on MFM-223 [11], the normalised response is 88.1%.
With `CC(=O)Nc1ccc(C(=O)Nc2ccccc2N)cc1` [Tacedinaline], the drug sensitivity score with CAL-120 [12], with CAL-148 [13], with CAL-51 [14], in the assay on CAL-85-1 [15], in the assay with DU-4475 and in the assay on HCC1143 [16] was 0 throughout. The drug sensitivity score in the assay with HCC1937, with HDQ-P1 [17], in the assay with Hs578T [18], in the assay with MDA-MB-231 [19], in the assay with MDA-MB-436 [20] and with MDA-MB-453 [21] was 0 throughout. For the same compound, the drug sensitivity score in the assay on MDA-MB-468 [22] and in the assay with MFM-223 [23] was 0 in each case.
Take `COc1cc([C@@H]2c3cc4c(cc3[C@@H](O[C@@H]3O[C@@H]5CO[C@@H](C)O[C@H]5[C@H](O)[C@H]3O)[C@H]3COC(=O)[C@H]23)OCO4)cc(OC)c1O` [Etoposide] (10000 nM): the normalised response with BT-474 was found to be 97.3%; in the assay with CAL-120 [1] it was 75.7%; with CAL-148 [2] it was 49.6%; in the assay with CAL-51 [3] it was 36.8%; with CAL-85-1 [4], 34.3%; in the assay on HCC1143 [24], 98.3%. For the same compound, the normalised response in the assay on HDQ-P1 [5] came to 109%; in the assay on Hs578T [6], 88.2%; with MCF-10A it was 108%; in the assay on MDA-MB-231 [7], 61%; in the assay on MDA-MB-436 [8], 80.9%; in the assay on MDA-MB-453 [9], 109%. The normalised response was -48% with MDA-MB-468 [10] and 103% with MFM-223 [11].
Take `CCC1=C[C@@H]2CN(C1)Cc1c([nH]c3ccccc13)[C@@](C(=O)OC)(c1cc3c(cc1OC)N(C)[C@H]1[C@@](O)(C(=O)OC)[C@H](OC(C)=O)[C@]4(CC)C=CCN5CC[C@]31[C@@H]54)C2` [Vinorelbine] (10000 nM): the normalised response with BT-474 stood at 59.1%; in the assay with CAL-120 [1] it was 75.5%; with CAL-148 [2], 80.7%; with CAL-51 [3] it was 7%; in the assay on CAL-85-1 [4], 71%; in the assay with HCC1143 [24], 106%. Besides, the normalised response in the assay on HDQ-P1 [5] is 97.8%; with Hs578T [6], -16.6%; with MCF-10A, 41.4%; in the assay with MDA-MB-231 [7], -5.22%; in the assay with MDA-MB-436 [8], 70.8%; in the assay with MDA-MB-453 [9], 90.3%. The normalised response in the assay with MDA-MB-468 [10] is 5.11%; with MFM-223 [11] it was 42.7%.
